Measurements published in patent publication US7803801B2, “Aminopyridine compounds having Syk inhibitory activity” (Japan Tobacco, Inc., priority 2005, dated 2010).

Assays:
[1] = tested on: cultured human mast cells; assay: Degranulation inhibition test using cultured human mast cells (IgE cross-linking, β-Hexosaminidase release); format: cell-based; details: Mast cell; cultured human mast cells, anti-hIgE stimulation, β-Hexosaminidase index, average; read-out: human degranulation ave. IC50
Description: Degranulation Inhibition Test Using Cultured Human Mast Cells
(1) Separation of Hematopoietic Stem Cells;
After 10 to 60 mL of umbilical cord blood collected with heparin was diluted with an equivalent amount of buffer (0.5% BSA, 2 mM EDTA/PBS-), it was superposed on Ficoll-Paque (Amersham Pharmacia Biotech) (Ficoll/Blood (1:2)) and mononuclear leukocyte fraction was collected by centrifuging it at 400 G (1350 rpm) 4° C. for 30 minutes. After centrifugal washing (1500 rpm, 5 min, 4° C.×3) with buffer, the number of cells was counted and 0.1 mL of CD34 Progenitor Cell Isolation Kit (Miltenyi Biotec), Reagent A1 (Fc blocking) was added for 1×10^8 cells. After agitation, 0.1 mL of Reagent A2 (CD34 antibody-hapten) was added (final volume 0.5 mL/1×10^8 cells) and incubated at 9° C. for further 15 minutes after agitation. After centrifugal washing (1500 rpm, 5 min, 4° C.×3), it was resuspeded in a buffer (0.4 mL) and 0.1 mL of Reagent B (anti hapten antibody-microbeads) was added and agitated (final volume 0.5 mL/1×10^8 cells) and incubated at 9° C. for further 15 minutes. After centrifugal washing (1500 rpm, 5 min, 4° C.×2), it was resuspeded in a buffer (0.5 mL) and loaded on CS column (Miltenyi Biotec) set in MACS (MAgnetic Cell Sorting system; Miltenyi Biotec, Daiichi Pure Chemicals) and washed with 30 mL of buffer to remove CD34^− cells. The column was separated from MACS and eluted with 30 mL of buffer and CD34^+ cells bound to the column were collected and used as a hematopoietic stem cell population.
(2) Acquisition of Human Mast Cells by Long-Term Culturing of Hematopoietic Stem Cells;
The CD34^+ cells separated in (1) were resuspended in Iscove's Modified Dulbecco's Medium (IMDM, Gibco) containing human (rh)SCF (1 μg/mL, Peprotech), rhIL-6 (0.5 μg/mL, Peprotech), rhIL-3 (10 ng/mL, Peprotech), 1% Insulin-Transferrin (Gibco), 5×10^−5M 2-ME (Gibco), 0.1% BSA (Sigma) in a density of 1×10^6 cells/ml and disseminated on 24-well culture plate with a dose of 0.1 mL/well and 0.9 ml of IMDM (Methocult SF^BIT StemCell technology) containing 0.9% methyl cellulose was added and culturing was started. The above culture medium (excluding methyl cellulose) was added in a week and after that 100 μL/well of the above culture medium (further excluding IL-3) was added at an interval of every once a week so that cells were diluted to maintain 10^5 cells/mL/well order and cultured more than about 8 weeks and thereby human culture mast cells were obtained.
(3) Expression Enhancement of FcεRI and Inhibition Test IgE Cross-Linking Stimulating Degranulation;
rhIL-4 (final concentration 1 ng/mL, R & D) and Homo sapiens(h) IgE (final concentration 0.5 μg/mL, CHEMICON) were added to the obtained human culture mast cells, and they were incubated for 5 days to enhance the expression of FcεRI. After incubation, cells were collected and, after centrifugal washing (IMDM), they were disseminated on 96-well culture plate in 5×10^4 cells/80 μL/well.
10 μL of a compound 10-fold diluted with IMDM after dissolved in DMSO (DMSO final concentration 0.1%) was added and reacted at 37° C. for 10 minutes. Further, 10 μL of anti-hIgE Ab (CHEMICON) adjusted to 100 μg/mL (final concentration 10 μg/mL) was added and degranulation was caused by being stimulated at 37° C. for 30 minutes. After centrifugation, 50 μL/well of the supernatant was collected and stored at −40° C. untill the quantity of degranulation was measured. The measurement of quantity of degranulation was performed using enzymatic activity of β-Hexosaminidase contained in the granulates as an index. That is, an equivalent amount of p-nitrophenyl-N-acetyl-β-D-glucosaminide (1 mM) (containing 0.1% Triton X-100) which is a substrate of β-Hexosaminidase was added to 50 μL of the culture filtrate, and after reacted at 37° C. for 2 hours, the reaction was terminated by using 100 μL of Carbonate buffer (0.1M, pH 10). […]

[2] = target: GST-Syk Full Protein (human) (Homo sapiens, UniProt P43405); assay: Syk kinase inhibition test (HTRF method); format: biochemical; details: HTRF, 100 μM ATP, 30 min room temperature, average; read-out: sykHTRF ave IC50
In short: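 HTRF read-out: after EDTA termination and 1 h with XL665-streptavidin and Eu-anti-phosphotyrosine, the 665/620 nm ratio was measured. The reaction ran 30 min at 20–25 °C with final 6.4 nM human GST-Syk, 250 nM biotinylated peptide, 100 μM ATP, pH 7.0 HEPES buffer, 2% DMSO.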

Row | SMILES | IC50 [1] [nM] | IC50 [2] [nM]
1 | Cc1ccnc(Nc2cccc(-c3cnc(C(=O)NC(CO)CO)s3)n2)c1 [Compound A-72] | > 1000 | 100 to 1000
2 | Cc1ccnc(Nc2cccc(-c3cnc(C4CCC(=NO)CC4)s3)n2)c1 (centres unmarked) [Compound A-74, 4-{5-[6-(4-methylpyridin-2-ylamino)pyridin-2-yl]thiazol-2-yl}cyclohexanone oxime] | > 1000 | < 100
3 | Cc1ccnc(Nc2cccc(-c3cnc(C(=O)C(C)C)s3)n2)c1 [Compound A-83] | > 1000 | 100 to 1000
4 | Cc1ccnc(Nc2cccc(-c3cnc([C@@H](N)Cc4ccc(OCc5ccccc5)cc4)s3)n2)c1 [Compound A-86] | > 1000 | 100 to 1000
5 | CC(=O)N1C[C@H](OCc2ccccc2)C[C@H]1c1ncc(-c2cccc(Nc3cc(C)ccn3)n2)s1 [Compound A-90] | > 1000 | 100 to 1000
6 | CC(=O)O[C@@H]1C[C@@H](c2ncc(-c3cccc(Nc4cc(C)ccn4)n3)s2)N(C(C)=O)C1 [Compound A-93] | > 1000 | 100 to 1000
7 | CC(=O)N1C[C@H](O)C[C@H]1c1ncc(-c2cccc(Nc3cc(C)ccn3)n2)s1 [Compound A-95] | > 1000 | 100 to 1000
8 | CC(=O)N[C@@H](CCC(=O)OCc1ccccc1)c1ncc(-c2cccc(Nc3cc(C)ccn3)n2)s1 [Compound A-98] | > 1000 | 100 to 1000
9 | CCOC(=O)c1nc([C@H](C)N)sc1-c1cccc(Nc2cc(C)ccn2)n1 [Compound A-101] | > 1000 | > 1000
10 | CCOC(=O)c1nc([C@H](C)NC(C)=O)sc1-c1cccc(Nc2cc(C)ccn2)n1 [Compound A-102] | > 1000 | > 1000
11 | CC(=O)N[C@@H](CCC(=O)O)c1ncc(-c2cccc(Nc3cc(C)ccn3)n2)s1 [Compound A-103] | > 1000 | 100 to 1000
12 | Cc1ccnc(Nc2cccc(-c3sc([C@H](C)N)nc3C)n2)c1 [Compound A-104] | > 1000 | 100 to 1000
13 | CC(=O)N[C@@H](C)c1nc(C)c(-c2cccc(Nc3cc(C)ccn3)n2)s1 [Compound A-105] | > 1000 | 100 to 1000
14 | Cc1ccnc(Nc2cccc(-c3cnc([C@@H](N)CCC(=O)O)s3)n2)c1 [Compound A-106] | > 1000 | 100 to 1000
15 | Cc1ccnc(Nc2cccc(-c3cnc([C@@H](O)CCC(=O)O)s3)n2)c1 [Compound A-107] | > 1000 | 100 to 1000
16 | CC(=O)N[C@@H](C)c1nc(CO)c(-c2cccc(Nc3cc(C)ccn3)n2)s1 [Compound A-108] | > 1000 | > 1000

Continued, values first:

Row | IC50 [1] [nM] | IC50 [2] [nM] | SMILES
17 | > 1000 | 100 to 1000 | Cc1ccnc(Nc2cccc(-c3cnc(C(=O)NCC(C)O)s3)n2)c1 (centres unmarked) [Compound A-66]
18 | > 1000 | 100 to 1000 | Cc1ccnc(Nc2cccc(-c3cnc(C(=O)NC4CCCCC4O)s3)n2)c1 (centres unmarked) [Compound A-67]
19 | > 1000 | 100 to 1000 | COC(=O)CCCCc1ncc(-c2cccc(Nc3cc(C)ccn3)n2)s1 [Compound A-68]
20 | > 1000 | < 100 | Cc1ccnc(Nc2cccc(-c3cnc(CCCCC(=O)O)s3)n2)c1 [Compound A-69, 5-{5-[6-(4-methylpyridin-2-ylamino)pyridin-2-yl]thiazol-2-yl}pentanoic acid]
21 | 100 to 1000 | < 100 | Cc1ccnc(Nc2cccc(-c3cnc(CCCCCO)s3)n2)c1 [Compound A-70, 5-{5-[6-(4-methylpyridin-2-ylamino)pyridin-2-yl]thiazol-2-yl}pentan-1-ol]
22 | 100 to 1000 | < 100 | Cc1ccnc(Nc2cccc(-c3cnc(CCCCC(N)=O)s3)n2)c1 [Compound A-71, 5-{5-[6-(4-methylpyridin-2-ylamino)pyridin-2-yl]thiazol-2-yl}pentanamide]
23 | 100 to 1000 | < 100 | Cc1ccnc(Nc2cccc(-c3cnc(C4CCC(O)CC4)s3)n2)c1 (centres unmarked) [Compound A-73, 4-{5-[6-(4-methylpyridin-2-ylamino)pyridin-2-yl]thiazol-2-yl}cyclohexanol]
24 | 100 to 1000 | < 100 | C[C@H](N)c1ncc(-c2cccc(Nc3cc(-c4ccncc4)ccn3)n2)s1 [Compound A-75, N-{6-[2-((S)-1-aminoethyl)thiazol-5-yl]pyridin-2-yl}-N-([4,4′]bipyridinyl-2-yl)amine]
25 | 100 to 1000 | 100 to 1000 | COc1ccnc(Nc2cccc(-c3cnc([C@H](C)N)s3)n2)c1 [Compound A-76]
26 | 100 to 1000 | 100 to 1000 | COc1ccnc(Nc2cccc(-c3cnc([C@H](C)NC(C)=O)s3)n2)c1 [Compound A-77]
27 | 100 to 1000 | 100 to 1000 | Cc1ccnc(Nc2cccc(-c3cnc([C@@H](O)CO)s3)n2)c1 [Compound A-78]
28 | 100 to 1000 | < 100 | CC(=O)N[C@@H](C)c1ncc(-c2cccc(Nc3cc(-c4ccncc4)ccn3)n2)s1 [Compound A-79, N—((S)-1-{5-[6-([4,4′]bipyridinyl-2-ylamino)pyridin-2-yl]thiazol-2-yl}ethyl)acetamide]
29 | 100 to 1000 | 100 to 1000 | CC(=O)N[C@@H](C)c1ncc(-c2cccc(Nc3cc(OCc4ccccc4)ccn3)n2)s1 [Compound A-80]
30 | 100 to 1000 | < 100 | CC(=O)N[C@@H](C)c1ncc(-c2cccc(Nc3cc(Cl)ccn3)n2)s1 [Compound A-81, N—((S)-1-{5-[6-(4-chloropyridin-2-ylamino)pyridin-2-yl]thiazol-2-yl}ethyl)acetamide]
31 | 100 to 1000 | < 100 | Cc1ccnc(Nc2cccc(-c3cnc([C@@H](O)C(C)C)s3)n2)c1 [Compound A-82, (S)-2-methyl-1-{5-[6-(4-methylpyridin-2-ylamino)pyridin-2-yl]thiazol-2-yl}propan-1-ol]
32 | 100 to 1000 | < 100 | CC(=O)N[C@@H](C)c1ncc(-c2cccc(Nc3cc4ccccc4cn3)n2)s1 [Compound A-91, N—((S)-1-{5-[6-(isoquinolin-3-ylamino)pyridin-2-yl]thiazol-2-yl}ethyl)acetamide]
33 | 100 to 1000 | < 100 | Cc1ccnc(Nc2cccc(-c3cnc(C4CCNCC4)s3)n2)c1 [Compound A-92, (4-methylpyridin-2-yl)-[6-(2-piperidin-4-ylthiazol-5-yl)pyridin-2-yl]amine]
34 | 100 to 1000 | 100 to 1000 | CC(=O)N1CCC(c2ncc(-c3cccc(Nc4cc(C)ccn4)n3)s2)CC1 [Compound A-94]
35 | 100 to 1000 | 100 to 1000 | Cc1ccnc(Nc2cccc(-c3cnc([C@@H](N)CCC(=O)OCc4ccccc4)s3)n2)c1 [Compound A-97]
36 | 100 to 1000 | 100 to 1000 | CC(=O)N[C@@H](Cc1ccc(O)cc1)c1ncc(-c2cccc(Nc3cc(C)ccn3)n2)s1 [Compound A-99]
37 | 100 to 1000 | 100 to 1000 | Cc1ccnc(Nc2cccc(-c3cnc(C4=NCCC4)s3)n2)c1 [Compound A-110]
